Results reported in ChEMBL document CHEMBL1136877, “2,4(5)-diarylimidazoles as inhibitors of hNaV1.2 sodium channels: pharmacological evaluation and structure-property relationships” (Bioorg Med Chem, 2009).
Calls of active or inactive are those of the source. The calls are words filed in the database; no cut-off is given here.

Key:
[1] = molecular target: T1, Sodium channel protein type 2 subunit alpha (Homo sapiens, UniProt Q99250); experiment: Inhibition of human Nav1.2 channel expressed in HEK cells at 10 uM by patch-clamp electrophysiology method; type: cell-based; details: HEK293
Target sequence in this assay (Q99250 whole entry, looked up): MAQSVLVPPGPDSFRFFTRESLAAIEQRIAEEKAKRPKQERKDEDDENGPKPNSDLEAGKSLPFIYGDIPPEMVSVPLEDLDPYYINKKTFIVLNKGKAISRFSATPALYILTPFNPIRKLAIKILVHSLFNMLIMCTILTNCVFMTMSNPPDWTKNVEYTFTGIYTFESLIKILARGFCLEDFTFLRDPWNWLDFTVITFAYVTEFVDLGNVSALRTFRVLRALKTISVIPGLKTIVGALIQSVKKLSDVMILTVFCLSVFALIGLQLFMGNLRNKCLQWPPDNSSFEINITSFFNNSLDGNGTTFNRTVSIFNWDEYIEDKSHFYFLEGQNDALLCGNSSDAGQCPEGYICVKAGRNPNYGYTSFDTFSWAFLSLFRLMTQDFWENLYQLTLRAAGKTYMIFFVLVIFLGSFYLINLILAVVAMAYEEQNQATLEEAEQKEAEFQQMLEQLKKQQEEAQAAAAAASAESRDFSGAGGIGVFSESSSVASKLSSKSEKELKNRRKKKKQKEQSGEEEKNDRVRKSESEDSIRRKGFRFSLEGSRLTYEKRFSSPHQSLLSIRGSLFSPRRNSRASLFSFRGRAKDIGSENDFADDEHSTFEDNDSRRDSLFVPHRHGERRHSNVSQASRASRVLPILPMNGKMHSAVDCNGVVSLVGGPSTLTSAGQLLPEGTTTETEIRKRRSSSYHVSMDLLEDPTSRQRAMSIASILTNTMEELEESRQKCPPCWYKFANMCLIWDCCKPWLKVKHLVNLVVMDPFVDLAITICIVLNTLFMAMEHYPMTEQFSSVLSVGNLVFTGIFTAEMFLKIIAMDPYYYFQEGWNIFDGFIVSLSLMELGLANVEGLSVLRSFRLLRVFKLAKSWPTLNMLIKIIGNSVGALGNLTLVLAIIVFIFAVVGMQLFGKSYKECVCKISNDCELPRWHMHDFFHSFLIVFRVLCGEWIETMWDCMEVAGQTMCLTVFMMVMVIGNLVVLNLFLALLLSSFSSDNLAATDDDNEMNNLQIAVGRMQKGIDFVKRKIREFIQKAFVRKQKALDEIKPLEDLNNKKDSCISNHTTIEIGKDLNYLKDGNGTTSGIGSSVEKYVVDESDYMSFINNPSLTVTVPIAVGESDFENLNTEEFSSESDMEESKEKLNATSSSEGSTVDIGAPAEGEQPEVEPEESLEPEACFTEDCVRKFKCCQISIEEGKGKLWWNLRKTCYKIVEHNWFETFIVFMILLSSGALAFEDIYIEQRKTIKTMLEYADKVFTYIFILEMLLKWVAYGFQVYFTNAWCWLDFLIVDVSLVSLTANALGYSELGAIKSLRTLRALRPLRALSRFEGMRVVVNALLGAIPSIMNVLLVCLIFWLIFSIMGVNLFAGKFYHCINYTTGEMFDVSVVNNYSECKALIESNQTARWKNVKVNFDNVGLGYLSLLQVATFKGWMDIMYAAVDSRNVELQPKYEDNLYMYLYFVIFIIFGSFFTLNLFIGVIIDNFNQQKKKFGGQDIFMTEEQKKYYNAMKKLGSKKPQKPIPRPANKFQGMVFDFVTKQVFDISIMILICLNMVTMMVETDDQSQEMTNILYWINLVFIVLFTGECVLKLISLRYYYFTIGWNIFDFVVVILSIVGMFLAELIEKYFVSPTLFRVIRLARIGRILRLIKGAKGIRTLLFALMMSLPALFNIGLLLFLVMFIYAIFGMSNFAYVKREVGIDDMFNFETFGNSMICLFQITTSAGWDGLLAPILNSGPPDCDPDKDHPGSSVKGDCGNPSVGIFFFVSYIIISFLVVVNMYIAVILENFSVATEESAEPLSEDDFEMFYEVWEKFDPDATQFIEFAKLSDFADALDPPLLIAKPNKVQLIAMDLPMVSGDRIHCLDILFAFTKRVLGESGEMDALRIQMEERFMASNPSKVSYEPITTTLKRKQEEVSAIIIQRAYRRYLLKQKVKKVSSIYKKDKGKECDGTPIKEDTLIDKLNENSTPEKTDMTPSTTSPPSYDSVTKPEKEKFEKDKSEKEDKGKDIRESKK

[2] = Octanol-buffer partition coefficient, log D at pH 7.4 by shake-flask method; type: physicochemical
[3] = molecular target: T1, Sodium channel protein type 2 subunit alpha; experiment: Inhibition of human Nav1.2 channel expressed in HEK cells at 100 uM by patch-clamp electrophysiology method; type: cell-based; details: HEK293
Target sequence in this assay (Q99250 whole entry, looked up): as above

[4] = Dissociation constant, pKa by potentiometric pH-metric method; type: physicochemical
[5] = molecular target: T1, Sodium channel protein type 2 subunit alpha; experiment: Inhibition of human Nav1.2 channel expressed in HEK cells by patch-clamp electrophysiology method; type: cell-based, HEK293
Target sequence in this assay (Q99250 whole entry): as the sequence (Q99250 whole entry, looked up) above

Compound | inhibition [1] | logD [2] | inhibition [3] [%] | pKa [4] | IC50 [5] [µM]
COc1ccc(-c2c[nH]c(-c3ccccc3)n2)cc1 | inactive | 3.66 | 33.3 | 5.83 | 
FC(F)(F)c1cccc(-c2c[nH]c(-c3ccccc3)n2)c1 | 82.9% | 4.72 | 100 | 5.27 | 2.7
COc1cccc(-c2c[nH]c(-c3ccccc3)n2)c1 | 14.2% | 3.74 | 35.6 | 5.58 | 
COc1ccc(-c2nc(-c3ccccc3)c[nH]2)cc1 |  | 3.62 |  | 6.03 | 
O=[N+]([O-])c1cccc(-c2nc(-c3ccccc3)c[nH]2)c1 | inactive | 3.89 | 20.4 | 4.92 | 
FC(F)(F)c1ccc(-c2nc(-c3ccccc3)c[nH]2)cc1 |  | 4.9 |  | 5.19 | 
O=[N+]([O-])c1cccc(-c2c[nH]c(-c3ccccc3)n2)c1 | 15.6% | 3.9 | 85.8 | 4.82 | 
FC(F)(F)c1cccc(-c2c[nH]c(-c3ccc(Cl)cc3)n2)c1 | 27.5% |  | 43.6 |  | > 100
Nc1nnc(-c2cccc(Cl)c2Cl)c(N)n1 [LAMOTRIGINE] | 12.1% |  | 35.1 |  | > 100
FC(F)(F)c1cccc(-c2nc(-c3ccccc3)c[nH]2)c1 | 49.2% | 4.54 | 95.2 | 5.11 | 
FC(F)(F)c1ccc(-c2c[nH]c(-c3ccccc3)n2)cc1 | 91.6% | 4.78 | 100 | 5.31 | 1.4
c1ccc(-c2c[nH]c(-c3ccccc3)n2)cc1 | 7.8% | 3.72 | 80.5 | 5.65 | 40.6
Clc1cccc(-c2nc(-c3ccccc3)c[nH]2)c1 | 7.5% | 4.54 | 92.2 | 5.12 | 
O=[N+]([O-])c1ccc(-c2nc(-c3cccc(C(F)(F)F)c3)c[nH]2)cc1 | 86.9% |  | 100 |  | 2.5
COc1cccc(-c2nc(-c3ccccc3)c[nH]2)c1 | inactive | 3.84 | 41.7 | 5.57 | 
Clc1ccc(-c2nc(-c3ccccc3)c[nH]2)cc1 | 92.5% | 4.27 | 100 | 5.37 | 1.4
Clc1ccc(-c2c[nH]c(-c3ccccc3)n2)cc1 | 31.5% | 4.53 | 96.6 | 5.47 | 
Clc1cccc(-c2c[nH]c(-c3ccccc3)n2)c1 |  | 4.76 |  | 5.45 | 
O=[N+]([O-])c1ccc(-c2nc(-c3ccccc3)c[nH]2)cc1 | 57.1% | 4.06 | 92.6 | 4.74 | 
O=[N+]([O-])c1ccc(-c2c[nH]c(-c3ccccc3)n2)cc1 | inactive | 3.95 | 30.3 | 5.12 | 
FC(F)(F)c1cccc(-c2c[nH]c(-c3cccc(C(F)(F)F)c3)n2)c1 | 100% |  | 100 |  | 0.2
